Counter-ions that a name gives are not always drawn.
Tests used:
[1] = molecular target: Aurora B (Homo sapiens (Human), UniProt Q96GD4); assay: Aurora B inhibition assay (Z-Lyte); assay type: biochemical; settings: read-out: Aurora B IC50 Ranges
Method: Aurora B inhibition was determined using the Z-Lyte assay kit from Invitrogen. […] The % inhibition values were determined according to the manufacturer's directions and IC50 values were obtained using a non-linear 4 point logistic curve fit (XLfit4, IDBS)

[2] = molecular target: human PLK4 (Homo sapiens (Human), UniProt O00444); assay: PLK4 inhibition assay (indirect ELISA); assay type: biochemical; settings: read-out: PLK4 IC50 Ranges
Sequence of human PLK4 (O00444 1-391): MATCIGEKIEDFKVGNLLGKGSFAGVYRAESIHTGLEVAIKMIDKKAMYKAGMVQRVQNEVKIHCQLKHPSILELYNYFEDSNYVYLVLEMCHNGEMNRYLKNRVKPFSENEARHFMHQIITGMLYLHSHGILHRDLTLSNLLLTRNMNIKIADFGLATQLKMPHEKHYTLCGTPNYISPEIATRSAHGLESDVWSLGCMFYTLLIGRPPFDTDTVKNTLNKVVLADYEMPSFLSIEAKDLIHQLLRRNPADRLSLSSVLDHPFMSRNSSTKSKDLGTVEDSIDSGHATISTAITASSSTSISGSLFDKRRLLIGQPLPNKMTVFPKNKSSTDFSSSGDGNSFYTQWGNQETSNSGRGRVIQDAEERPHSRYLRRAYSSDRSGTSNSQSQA
Method: PLK4 activity was measured using an indirect ELISA detection system. […] The colourimetric reaction was allowed to continue for 5 minutes, followed by addition of stop solution (0.5 N sulphuric acid), and quantified by detection at 450 nm with either a monochromatic or filter based plate reader (Molecular Devices M5 or Beckman DTX880, respectively).
Compounds were pre-incubated in the presence of enzyme for 15 minutes prior to addition of ATP and the activity remaining quantified using the above described activity assay. […] The IC50 value was determined using a non-linear 4 point logistic curve fit (XLfit4, IDBS) with the formula; (A+(B/(1+((x/C)^D)))), where A=background value, B=range, C=inflection point, D=curve fit parameter.

Sequence of Aurora B (Q96GD4 whole entry): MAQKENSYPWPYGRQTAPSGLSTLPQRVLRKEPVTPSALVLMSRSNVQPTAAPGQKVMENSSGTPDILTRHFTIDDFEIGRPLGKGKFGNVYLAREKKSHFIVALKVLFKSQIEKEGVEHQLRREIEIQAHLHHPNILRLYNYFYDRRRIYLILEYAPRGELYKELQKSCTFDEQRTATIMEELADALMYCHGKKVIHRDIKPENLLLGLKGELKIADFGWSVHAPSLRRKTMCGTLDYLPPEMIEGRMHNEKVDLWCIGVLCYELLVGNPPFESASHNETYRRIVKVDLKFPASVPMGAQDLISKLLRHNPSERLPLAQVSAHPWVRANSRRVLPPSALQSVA

Compound | IC50 [1] [nM] | IC50 [2] [nM]
COc1ccc2c(c1)[C@]1(C[C@H]1c1ccc3c(-c4ccc(OCCN(C)C)cc4)n[nH]c3c1)C(=O)N2 [Example A69, (1R,2S)-2-(3-(4-(2-(dimethylamino)ethoxy)phenyl)-1H-indazol-6-yl)-5′-methoxyspiro[cyclopropane-1,3′-indolin]-2′-one 2,2,2-trifluoroacetate salt] | < 100 | < 100
COc1ccc2c(c1)[C@]1(C[C@H]1c1ccc3c(-c4ccc5c(c4)CN(C)CC5)n[nH]c3c1)C(=O)N2 [Example A70, (1R,2S)-5′-methoxy-2-(3-(2-methyl-1,2,3,4-tetrahydroisoquinolin-7-yl)-1H-indazol-6-yl)spiro[cyclopropane-1,3′-indolin]-2′-one 2,2,2-trifluoroacetate salt] | < 100 | < 100
COc1ccc2c(c1)[C@]1(C[C@H]1c1ccc3c(/C=C/c4ccc(CN5CCCOCC5)cc4)n[nH]c3c1)C(=O)N2 [Example A73, (1R,2S)-(E)-2-(3-(4-((1,4-oxazepan-4-yl)methyl)styryl)-1H-indazol-6-yl)-5′-methoxyspiro[cyclopropane-1,3′-indolin]-2′-one 2,2,2-trifluoroacetate salt] | < 100 | < 100
CN1CCc2cc(/C=C/c3n[nH]c4cc([C@@H]5C[C@@]56C(=O)Nc5ccccc56)ccc34)ccc2C1 [Example A74, (1R,2S)-2-(3-((E)-2-(2-methyl-1,2,3,4-tetrahydroisoquinolin-6-yl)vinyl)-1H-indazol-6-yl)spiro[cyclopropane-1,3′-indolin]-2′-one 2,2,2-trifluoroacetate salt] | < 100 | < 100
COc1ccc2c(c1)[C@]1(C[C@H]1c1ccc3c(/C=C/c4ccc5c(c4)CCN(C)C5)n[nH]c3c1)C(=O)N2 [Example A75, (1R,2S)-5′-methoxy-2-(3-((E)-2-(2-methyl-1,2,3,4-tetrahydroisoquinolin-6-yl)vinyl)-1H-indazol-6-yl)spiro[cyclopropane-1,3′-indolin]-2′-one 2,2,2-trifluoroacetate salt] | < 100 | < 100
CN1CCc2cc(-c3n[nH]c4cc([C@@H]5C[C@@]56C(=O)Nc5ccccc56)ccc34)ccc2C1 [Example A76, (1R,2S)-2-(3-(2-methyl-1,2,3,4-tetrahydroisoquinolin-6-yl)-1H-indazol-6-yl)spiro[cyclopropane-1,3′-indolin]-2′-one 2,2,2-trifluoroacetate salt] | < 100 | < 100
COc1ccc2c(c1)[C@]1(C[C@H]1c1ccc3c(/C=C/c4ccc(OC5CCN(C)CC5)cc4)n[nH]c3c1)C(=O)N2 [Example A79, (1R,2S)-(E)-5′-methoxy-2-(3-(4-(1-methylpiperidin-4-yloxy)styryl)-1H-indazol-6-yl)spiro[cyclopropane-1,3′-indolin]-2′-one 2,2,2-trifluoroacetate salt] | < 100 | < 100
CC(C)(c1ccc(/C=C/c2n[nH]c3cc([C@@H]4C[C@@]45C(=O)Nc4ccccc45)ccc23)cc1)N1CCOCC1 [Example A80, (1R,2S)-(E)-2-(3-(4-(2-morpholinopropan-2-yl)styryl)-1H-indazol-6-yl)spiro[cyclopropane-1,3′-indolin]-2′-one 2,2,2-trifluoroacetate salt] | 100 to 1000 | < 100
CN1CCC(Cc2ccc(/C=C/c3n[nH]c4cc([C@@H]5C[C@@]56C(=O)Nc5ccccc56)ccc34)cc2)CC1 [Example A81, (1R,2S)-(E)-2-(3-(4-((1-methylpiperidin-4-yl)methyl)styryl)-1H-indazol-6-yl)spiro[cyclopropane-1,3′-indolin]-2′-one 2,2,2-trifluoroacetate salt] | < 100 | < 100
COc1ccc2c(c1)[C@]1(C[C@H]1c1ccc3c(/C=C/c4ccc(CC5CCN(C)CC5)cc4)n[nH]c3c1)C(=O)N2 [Example A82, (1R,2S)-(E)-5′-methoxy-2-(3-(4-((1-methylpiperidin-4-yl)methyl)styryl)-1H-indazol-6-yl)spiro[cyclopropane-1,3′-indolin]-2′-one 2,2,2-trifluoroacetate salt] | < 100 | < 100
COc1ccc2c(c1)[C@]1(C[C@H]1c1ccc3c(/C=C/c4ccc(CN5CCCC5)cc4)n[nH]c3c1)C(=O)N2 [Example A83, (1R,2S)-(E)-5′-methoxy-2-(3-(4-(pyrrolidin-1-ylmethyl)styryl)-1H-indazol-6-yl)spiro[cyclopropane-1,3′-indolin]-2′-one 2,2,2-trifluoroacetate] | < 100 | < 100
CN1C(=O)[C@@]2(C[C@H]2c2ccc3c(/C=C/c4ccc(N5CCNCC5)cc4)n[nH]c3c2)c2ccccc21 [Example A90, (1R,2S)-(E)-1′-methyl-2-(3-(4-(piperazin-1-yl)styryl)-1H-indazol-6-yl)spiro[cyclopropane-1,3′-indolin]-2′-one hydrochloride] | < 100 | < 100
O=C1Nc2ccccc2[C@]12C[C@H]2c1ccc2c(/C=C/c3ccc(N4CCNCC4)cc3)n[nH]c2c1 [Example A92, (1R,2S)-(E)-2-(3-(4-(piperazin-1-yl)styryl)-1H-indazol-6-yl)spiro[cyclopropane-1,3′-indolin]-2′-one 2,2,2-trifluoroacetate] | < 100 | < 100
CN1C(=O)[C@@]2(C[C@H]2c2ccc3c(/C=C/c4ccc(CN5CCCCC5)cc4)n[nH]c3c2)c2ccccc21 [Example A94, (1R,2S)-(E)-1′-methyl-2-(3-(4-(piperidin-1-ylmethyl)styryl)-1H-indazol-6-yl)spiro[cyclopropane-1,3′-indolin]-2′-one hydrochloride] | < 100 | < 100
COc1ccc2c(c1)[C@]1(C[C@H]1c1ccc3c(-c4ccc(N5CCNCC5)cc4)n[nH]c3c1)C(=O)N2C [Example A101, (1R,2S)-5′-methoxy-1′-methyl-2-(3-(4-(piperazin-1-yl)phenyl)-1H-indazol-6-yl)spiro[cyclopropane-1,3′-indolin]-2′-one 2,2,2-trifluoroacetate] | < 100 | < 100
COc1ccc2c(c1)[C@]1(C[C@H]1c1ccc3c(/C=C/c4ccc(CN5CCOCC5)s4)n[nH]c3c1)C(=O)N2 [Example A105, (1R,2S)-5′-methoxy-2-(3-((E)-2-(5-(morpholinomethyl)thiophen-2-yl)vinyl)-1H-indazol-6-yl)spiro[cyclopropane-1,3′-indolin]-2′-one hydrochloride] | < 100 | < 100
COc1ccc2c(c1)[C@]1(C[C@H]1c1ccc3c(-c4ccc5nccn5c4)n[nH]c3c1)C(=O)N2 [Example A107, (1R,2S)-2-(3-(imidazo[1,2-a]pyridin-6-yl)-1H-indazol-6-yl)-5′-methoxyspiro[cyclopropane-1,3′-indolin]-2′-one 2,2,2-trifluoroacetate] | < 100 | < 100
COc1ccc2c(c1)[C@]1(C[C@H]1c1ccc3c(-c4ccc(OCCn5ccnc5)cc4)n[nH]c3c1)C(=O)N2 [Example A108, (1R,2S)-2-(3-(4-(2-(1H-imidazol-1-yl)ethoxy)phenyl)-1H-indazol-6-yl)-5′-methoxyspiro[cyclopropane-1,3′-indolin]-2′-one 2,2,2-trifluoroacetate] | < 100 | < 100
CN1CCN(c2ccc(/C=C/c3n[nH]c4cc([C@@H]5C[C@@]56C(=O)N(C)c5ccccc56)ccc34)cn2)CC1 [Example A110, (1R,2S)-1′-methyl-2-(3-((E)-2-(6-(4-methylpiperazin-1-yl)pyridin-3-yl)vinyl)-1H-indazol-6-yl)spiro[cyclopropane-1,3′-indolin]-2′-one bis(2,2,2-trifluoro acetate)] | < 100 | < 100
COc1ccc2c(c1)[C@]1(C[C@H]1c1ccc3c(/C=C/c4ccncc4)n[nH]c3c1)C(=O)N2 [Example A111, (1R,2S)-5′-methoxy-2-(3-((E)-2-(pyridin-4-yl)vinyl)-1H-indazol-6-yl)spiro[cyclopropane-1,3′-indolin]-2′-one 2,2,2-trifluoroacetate] | < 100 | < 100
O=C1Nc2ccccc2[C@]12C[C@H]2c1ccc2c(/C=C/c3cc(F)c(CN4CCOCC4)c(F)c3)n[nH]c2c1 [Example A116, (1R,2S)-(E)-2-(3-(3,5-difluoro-4-(morpholinomethyl)styryl)-1H-indazol-6-yl)spiro[cyclopropane-1,3′-indolin]-2′-one 2,2,2-trifluoroacetate] | < 100 | < 100
COc1ccc2c(c1)[C@]1(C[C@H]1c1ccc3c(-c4ccc(N5CCC(N6CCOCC6)CC5)cc4)n[nH]c3c1)C(=O)N2 [Example A121, (1R,2S)-5′-methoxy-2-(3-(4-(4-morpholinopiperidin-1-yl)phenyl)-1H-indazol-6-yl)spiro[cyclopropane-1,3′-indolin]-2′-one 2,2,2-trifluoroacetate] | < 100 | < 100
COc1ccc2c(c1)[C@]1(C[C@H]1c1ccc3c(-c4ccc(C5CCN(C)CC5)cc4)n[nH]c3c1)C(=O)N2 [Example A123, (1R,2S)-5′-methoxy-2-(3-(4-(1-methylpiperidin-4-yl)phenyl)-1H-indazol-6-yl)spiro[cyclopropane-1,3′-indolin]-2′-one hydrochloride] | < 100 | < 100
COc1ccc2c(c1)[C@]1(C[C@H]1c1ccc3c(-c4ccc(N5CC[C@@H](N(C)C)C5)cc4)n[nH]c3c1)C(=O)N2 [Example A127, (1R,2S)-2-(3-(4-((R)-3-(dimethylamino)pyrrolidin-1-yl)phenyl)-1H-indazol-6-yl)-5′-methoxyspiro[cyclopropane-1,3′-indolin]-2′-one 2,2,2-trifluoroacetate] | < 100 | < 100
CCN(CC)Cc1c(F)cc(/C=C/c2n[nH]c3cc([C@@H]4C[C@@]45C(=O)Nc4ccc(OC)cc45)ccc23)cc1F [Example A146, (1R,2S)-(E)-2-(3-(4-((diethylamino)methyl)-3,5-difluorostyryl)-1H-indazol-6-yl)-5′-methoxyspiro[cyclopropane-1,3′-indolin]-2′-one 2,2,2-trifluoroacetate] | < 100 | < 100

From patent publication US9907800B2, “Kinase inhibitors and method of treating cancer” (University Health Network, priority 2010, dated 2018)
